# Biological target: T1, airway epithelial sodium currents (sodium channel) in canine bronchial epithelia (Canis lupus familiaris, UniProt A0A8I3MKE6+A0A8I3Q679+Q95165)
# T1 construct: endogenous in cells; host or cells: primary canine bronchial epithelial cells from freshly excised airways, cultured at air-liquid interface on Snapwell inserts
# Assay: In vitro sodium channel blocking activity (short circuit current, Ussing chambers) in canine bronchial epithelia
# Format: cell-based
# Settings: potency in canine bronchial epithelia; for Fold Amiloride*: relative to amiloride (Formula III compounds), value ± spread
# Experimental: One assay used to assess mechanism of action and/or potency of the compounds of (1), (II), and (HI) involves the determination of lumenal drug inhibition of airway epithelial sodium currents measured under short circuit current (ISC) using airway epithelial monolayers mounted in Ussing chambers. Cells obtained from freshly excised human, dog, sheep or rodent airways are seeded onto porous 0.4 micron Snapwell™ Inserts (CoStar), cultured at air-liquid interface (ALI) conditions in hormonally defined media, and assayed for sodium transport activity (ISC) while bathed in Krebs Bicarbonate Ringer (KBR) in Using chambers. All test drug additions are to the lumenal bath with half-log dose addition protocols (from 1×10^−11 M to 3×10^−5 M), and the cumulative change in ISC (inhibition) recorded. All drugs are prepared in dimethyl sulfoxide as stock solutions at a concentration of 1×10^−2 M and stored at −20° C. Eight preparations are typically run in parallel; two preparations per run incorporate amiloride and/or benzamil as positive controls. After the maximal concentration (5×10^−5 M) is administered, the lumenal bath is exchanged three times with fresh drug-free KBR solution, and the resultant ISC measured after each wash for approximately 5 minutes in duration. Reversibility is defined as the percent return to the baseline value for sodium current after the third wash. All data from the voltage clamps are collected via a computer interface and analyzed off-line.
# Dose-effect relationships for all compounds are considered and analyzed by the Prism 3.0 program. IC50 values, maximal effective concentrations, and reversibility are calculated and compared to amiloride and benzamil as positive controls.
# Amiloride and/or a compound 33 was also tested in this assay as a positive control. The results for the compounds of the present invention are reported as fold-enhancement values relative to amiloride.
# Amiloride was also tested in this assay as a positive control. The results for the compounds of the present invention are reported as fold-enhancement values relative to amiloride.
# T1 sequence (A0A8I3Q679 entry or part of it): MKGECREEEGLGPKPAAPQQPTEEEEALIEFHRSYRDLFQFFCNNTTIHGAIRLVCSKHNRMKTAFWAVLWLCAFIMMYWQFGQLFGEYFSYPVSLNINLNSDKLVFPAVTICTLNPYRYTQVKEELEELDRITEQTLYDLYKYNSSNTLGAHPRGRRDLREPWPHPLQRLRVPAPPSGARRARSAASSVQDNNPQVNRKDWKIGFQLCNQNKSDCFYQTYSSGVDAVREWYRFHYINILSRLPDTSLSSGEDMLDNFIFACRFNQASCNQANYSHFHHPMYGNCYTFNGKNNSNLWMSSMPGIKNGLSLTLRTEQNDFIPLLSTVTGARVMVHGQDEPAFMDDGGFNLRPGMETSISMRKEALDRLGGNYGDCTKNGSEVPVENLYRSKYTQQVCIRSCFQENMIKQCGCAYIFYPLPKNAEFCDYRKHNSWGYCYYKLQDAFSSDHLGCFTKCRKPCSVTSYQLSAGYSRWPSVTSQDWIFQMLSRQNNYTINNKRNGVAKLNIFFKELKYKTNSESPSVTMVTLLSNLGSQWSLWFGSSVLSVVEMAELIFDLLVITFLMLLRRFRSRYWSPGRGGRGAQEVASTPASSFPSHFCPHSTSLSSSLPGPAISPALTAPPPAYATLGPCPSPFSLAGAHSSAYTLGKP
# T1 sequence (A0A8I3MKE6 entry or part of it): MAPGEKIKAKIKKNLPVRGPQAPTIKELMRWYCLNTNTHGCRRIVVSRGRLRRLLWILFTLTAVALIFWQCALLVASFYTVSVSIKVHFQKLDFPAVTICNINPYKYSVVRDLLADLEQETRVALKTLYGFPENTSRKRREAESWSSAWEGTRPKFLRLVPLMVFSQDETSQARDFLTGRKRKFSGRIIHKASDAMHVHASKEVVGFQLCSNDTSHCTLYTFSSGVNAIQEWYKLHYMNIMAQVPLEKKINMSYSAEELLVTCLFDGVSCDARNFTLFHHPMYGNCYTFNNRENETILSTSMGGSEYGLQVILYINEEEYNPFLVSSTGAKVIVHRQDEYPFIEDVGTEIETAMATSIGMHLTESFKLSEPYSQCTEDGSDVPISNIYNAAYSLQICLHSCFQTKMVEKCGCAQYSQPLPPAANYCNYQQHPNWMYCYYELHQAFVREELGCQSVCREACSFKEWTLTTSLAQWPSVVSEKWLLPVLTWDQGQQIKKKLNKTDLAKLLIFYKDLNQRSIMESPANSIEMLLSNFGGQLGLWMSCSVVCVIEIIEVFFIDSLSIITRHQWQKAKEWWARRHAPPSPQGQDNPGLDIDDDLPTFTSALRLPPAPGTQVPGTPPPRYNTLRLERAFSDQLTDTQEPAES
# T1 sequence (Q95165 whole entry): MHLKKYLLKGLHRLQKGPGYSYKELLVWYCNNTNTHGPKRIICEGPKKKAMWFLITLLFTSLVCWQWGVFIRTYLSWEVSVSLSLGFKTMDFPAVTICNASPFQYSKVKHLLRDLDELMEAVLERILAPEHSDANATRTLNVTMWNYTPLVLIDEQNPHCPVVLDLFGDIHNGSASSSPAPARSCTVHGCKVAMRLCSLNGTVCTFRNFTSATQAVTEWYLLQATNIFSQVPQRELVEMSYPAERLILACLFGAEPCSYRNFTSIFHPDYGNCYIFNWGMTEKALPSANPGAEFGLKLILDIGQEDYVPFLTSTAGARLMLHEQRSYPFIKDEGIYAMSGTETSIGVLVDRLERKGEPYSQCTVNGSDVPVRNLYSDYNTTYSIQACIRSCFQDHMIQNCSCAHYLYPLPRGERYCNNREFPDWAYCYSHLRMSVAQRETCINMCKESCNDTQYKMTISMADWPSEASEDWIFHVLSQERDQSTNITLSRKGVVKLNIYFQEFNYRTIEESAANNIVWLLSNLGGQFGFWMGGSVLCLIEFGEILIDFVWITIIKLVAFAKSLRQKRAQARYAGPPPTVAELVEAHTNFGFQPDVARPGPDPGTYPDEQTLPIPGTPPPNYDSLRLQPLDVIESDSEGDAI
smiles,measurement,setting,value
"Cl.N=C(NCCCCc1ccc(OCC(O)CO)cc1)NC(=O)c1nc(Cl)c(N)nc1N (centres unmarked) [compound 33, 4-[4-(2,3-Dihydroxypropyloxyl)phenyl]butylamidino-3,5-diamino-6-chloropyrazinecarboxamide hydrochloride]",Fold Amiloride*,"number in brackets not explained (presumably n), listed as drawing 52: O CH2 CHOH CH2 OH, hydrochloride",51.95 (50) fold
same,Fold Amiloride*,"number in brackets not explained (presumably n), listed as drawing 53: O CH2 CHOH CH2 OH, hydrochloride",51.95 (79) fold
same,Fold Amiloride*,"number in brackets not explained, Position=Para, hydrochloride",51.55 (79) fold
"Cl.Cl.N=C(N)NCCOc1ccc(CCCCNC(=N)NC(=O)c2nc(Cl)c(N)nc2N)cc1 [compound 9518, N-(3,5-diamino-6-chloropyrazine-2-carbonyl)-N′-{4-[4-(2-guanidinoethoxy)-phenyl]butyl}guanidine dihydrochloride]",Fold Amiloride*,number in brackets not explained,120.6 ± 60.8 (11) fold
"Cl.N=C(NCCCCc1ccc(O)cc1)NC(=O)c1nc(Cl)c(N)nc1N [compound V, 4-(4-hydroxyphenyl)butylamidino-3,5-diamino-6-chloropyrazinecarboxamide hydrochloride]",Fold Enhancement Over Amiloride,"relative to amiloride (Formula I compounds, Tables 1-4)",50.3 fold

# — patent US7745442B2, “Methods of reducing risk of infection from pathogens” (priority 2003, dated 2010)
